Test results reported in ChEMBL document CHEMBL5500340, “Synthesis and biological activity of thiophene bioisosteres of natural styryl lactone goniofufurone and related compounds” (Eur J Med Chem, 2024).

Experiments:
[1] = tested on: HeLa; test: Antiproliferative activity against human HeLa cells by MTT colorimetric assay; assay type: functional, cell-based
[2] = tested on: A549; test: Antiproliferative activity against human A549 cells by MTT colorimetric assay; assay type: functional, cell-based
[3] = tested on: MDA-MB-231; test: Antiproliferative activity against human MDA-MB-231 cells by MTT colorimetric assay; assay type: functional, cell-based
[4] = tested on: HL-60; test: Antiproliferative activity against human HL-60 cells by MTT colorimetric assay; assay type: functional, cell-based
[5] = tested on: MCF7; test: Antiproliferative activity against human MCF7 cells by MTT colorimetric assay; assay type: functional, cell-based
[6] = tested on: MRC5; test: Antiproliferative activity against human MRC5 cells by MTT colorimetric assay; assay type: functional, cell-based
[7] = tested on: Jurkat; test: Antiproliferative activity against human Jurkat cells by MTT colorimetric assay; assay type: functional, cell-based
[8] = tested on: K562; test: Antiproliferative activity against human K562 cells by MTT colorimetric assay; assay type: functional, cell-based
[9] = tested on: Raji; test: Antiproliferative activity against human Raji cells by MTT colorimetric assay; assay type: functional, cell-based
[10] = tested on: K562; test: Induction of cell cycle arrest in human K562 cells assessed as decrease in accumulation of cells at subG1 phase measured after 72 hrs by PI staining based flow cytometry analysis relative to control; assay type: functional; parameters: scale not given: the % may be the effect or the level left
[11] = tested on: K562; test: Induction of apoptosis in human K562 cells assessed as morphological changes measured after 72 hrs relative to control; assay type: functional
[12] = tested on: A549; test: Potency index, ratio of Doxorubicin IC50 to test compound IC50 for antiproliferative activity against human A549 cells by MTT colorimetric assay; assay type: functional
[13] = tested on: Cell membrane; test: Induction of cell membrane damage in human K562 cells measured after 72 hrs by acridine orange and ethidium bromide staining based analysis relative to control; assay type: cell membranes
[14] = tested on: K562; test: Induction of cell cycle arrest in human K562 cells assessed as decrease in accumulation of cells at S phase measured after 72 hrs by PI staining based flow cytometry analysis relative to control; assay type: functional; parameters: scale not given: the % may be the effect or the level left
[15] = tested on: K562; test: Induction of cell cycle arrest in human K562 cells assessed as increase in accumulation of cells at G2/M phase measured after 72 hrs by PI staining based flow cytometry analysis relative to control; assay type: functional
[16] = tested on: Raji; test: Potency index, ratio of Doxorubicin IC50 to test compound IC50 for antiproliferative activity against human Raji cells by MTT colorimetric assay; assay type: functional

IC50 [1] [µM] | IC50 [2] [µM] | IC50 [3] [µM] | IC50 [4] [µM] | IC50 [5] [µM] | IC50 [7] [µM] | IC50 [8] [µM] | IC50 [9] [µM] | SMILES | IC50 [6] [µM] | Activity [10] [%] | Activity [11] [%] | Ratio IC50 [12] | Activity [13] [%] | Activity [14] [%] | Activity [15] [%] | Ratio IC50 [16]
12.4 | 14.9 | 8.93 | 39.6 | 23.4 | 25.3 | 18.4 | 11.4 | O=C1C[C@H]2O[C@H](C(=O)c3cccs3)[C@H](O)[C@H]2O1 | > 100 | – | – | – | – | – | – | –
5.58 | 5.61 | 16.3 | 8.08 | 15.6 | 34 | 6.34 | 20.5 | O=C(c1cccs1)[C@H]1OC(O)[C@H](O)[C@H]1O (some centres undefined) | > 100 | – | – | – | – | – | – | –
0.11 | 1.2 | 2.88 | 2.07 | 3.38 | 1.01 | 0.03 | 5.97 | O=C1C[C@H]2O[C@H]([C@H](O)c3cccs3)[C@H](O)[C@H]2O1 | > 100 | >85 | 196.5 | 4 | 40.6 | 24.2 | 31.2 | –
3.89 | 18.4 | 5.21 | 1.09 | 1.02 | 1.69 | 2.67 | 5.36 | O=C1C[C@H]2O[C@@H](C(=O)c3cccs3)[C@H](O)[C@H]2O1 | > 100 | – | – | – | – | – | – | –
6.21 | 18.8 | 98.8 | 13 | 44.9 | 2.65 | 5.78 | 15 | O=C1C[C@H]2O[C@H]([C@@H](O)c3cccs3)[C@H](O)[C@H]2O1 | 95.6 | – | – | – | – | – | – | –

Second part, the compound before the results:

SMILES | IC50 [1] [µM] | IC50 [2] [µM] | IC50 [3] [µM] | IC50 [4] [µM] | IC50 [5] [µM] | IC50 [7] [µM] | IC50 [8] [µM] | IC50 [9] [µM] | IC50 [6] [µM] | Activity [10] [%] | Activity [11] [%] | Ratio IC50 [12] | Activity [13] [%] | Activity [14] [%] | Activity [15] [%] | Ratio IC50 [16]
O=C(/C=C/c1ccc(F)cc1)O[C@H](c1cccs1)[C@H]1O[C@@H]2CC(=O)O[C@@H]2[C@H]1O | 4.63 | 13.3 | 2.11 | 18.9 | 10.5 | 19.7 | 6.56 | 23.9 | > 100 | – | – | – | – | – | – | –
O=C1C[C@H]2O[C@H]([C@@H](O)c3ccccc3)[C@H](O)[C@H]2O1 | – | – | – | – | – | – | – | – | – | >55 | 254.2 | – | 57.3 | – | – | –
CC1(C)O[C@H]2O[C@H]([C@@H](O)c3cccs3)[C@H](O)[C@H]2O1 | 1.59 | 6.58 | 11.6 | 8.46 | 2.63 | 4.41 | 1.02 | 1.36 | > 100 | – | – | – | – | – | – | 2
O=C(/C=C/c1ccccc1)O[C@@H]1[C@H]2OC(=O)C[C@H]2O[C@@H]1[C@H](OC(=O)/C=C/c1ccccc1)c1cccs1 | 23.8 | 35.6 | 12.3 | 18.2 | 10.8 | 10.3 | 8.36 | 11.1 | > 100 | – | – | – | – | – | – | –
O=C1C[C@H]2O[C@H]([C@H](O)c3ccccc3)[C@H](O)[C@H]2O1 | – | – | – | > 100 | – | – | – | – | > 100 | – | 145.1 | – | 31.5 | – | – | –
O=C(/C=C/c1ccc(F)cc1)O[C@@H]1[C@H]2OC(=O)C[C@H]2O[C@@H]1[C@H](OC(=O)/C=C/c1ccc(F)cc1)c1cccs1 | 4.32 | 9.28 | 9.55 | 14.7 | 5.91 | 10.7 | 0.99 | 22.1 | > 100 | – | – | – | – | – | – | –
CC1(C)O[C@H]2O[C@H]([C@H](O)c3cccs3)[C@H](O)[C@H]2O1 | 2.85 | 7.32 | 8.12 | 1.05 | 4.34 | 1.06 | 0.89 | 3.45 | > 100 | – | – | – | – | – | – | –
